ChEMBL document CHEMBL1777758, “Selective labeling and monitoring pH changes of lysosomes in living cells with fluorogenic pH sensors” (Bioorg Med Chem Lett, 2011)

What was measured:
[1] = Drug uptake in lysosomes of BPAEC at 1 uM after 30 mins by fluorescence microscopy; format: ADME, Bos taurus, Lysosome; conditions: cattle, 0.5 h
[2] = Dissociation constant, pKa of the compound; format: physicochemical

SMILES	Drug uptake [1]	pKa [2]
CC1=CC(C)=[N+]2C1=C(c1ccc(N(C)C)cc1)c1c(C)cc(C)n1[B-]2(F)F	Active	3.2
CCN(CC)c1ccc(C2=C3C(C)=CC(C)=[N+]3[B-](F)(F)n3c(C)cc(C)c32)cc1	Active	5.2
CCN(CCCC(=O)OC)c1ccc(C2=C3C(C)=CC(C)=[N+]3[B-](F)(F)n3c(C)cc(C)c32)cc1	Active	3.2
CCN(CC)c1ccc(C2=C3C=CC(CCC(=O)OC)=[N+]3[B-](F)(F)n3c(CCC(=O)OC)ccc32)cc1	Active	3.2
